Measured values from patent publication US4015974A, “Amido phosphorothiolates” (priority 1972, dated 1977).

Experiments:
Assay type in all cases: in vivo
[1] = test system: barnyard grass (Echinochloa crus-galli); assay: Pre-emergence application, herbicidal effect on barnyard grass (Table 1); parameters: key: 0: not damaged; 5: completely killed; settings: 20 days after application, score 0-5
Method in brief: (§1)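 Steps: sow seeds individually in pots about 10 cm across; cover with soil; apply test compound as water-diluted wettable powder to the soil; grow in greenhouse; rate herbicidal effect at day 20 on a 0–5 scale (5 = completely killed).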

[2] = test system: large crabgrass (Digitaria sanguinalis); assay: Pre-emergence application, herbicidal effect on large crabgrass (Table 1); parameters: key: 0: not damaged; 5: completely killed; settings: 20 days after application, score 0-5
Method in brief: as §1

[3] = test system: radish; assay: Pre-emergence application, herbicidal effect on radish (Table 1); parameters: key: 0: not damaged; 5: completely killed; settings: 20 days after application, score 0-5
Method in brief: as §1

[4] = test system: redroot pigweed (Amaranthus retroflexus); assay: Pre-emergence application, herbicidal effect on redroot pigweed (Table 1); parameters: key: 0: not damaged; 5: completely killed; settings: 20 days after application, score 0-5
Method in brief: as §1

[5] = test system: common purslane (Portulaca oleracea); assay: Pre-emergence application, herbicidal effect on common purslane (Table 1); parameters: key: 0: not damaged; 5: completely killed; settings: 20 days after application, score 0-5
Method in brief: as §1

[6] = test system: common lambsquarter (Chenopodium album); assay: Pre-emergence application, herbicidal effect on common lambsquarter (Table 1); parameters: key: 0: not damaged; 5: completely killed; settings: 20 days after application, score 0-5
Method in brief: as §1

[7] = test system: rice; assay: Water application, phytotoxicity on rice (Table 2); parameters: key: 0: no effect; 1: very slightly affected; 2: slightly affected; 3: moderately affected; 4: considerably affected; 5: completely killed; settings: 25 days, score 0-5
Method in brief: (§2)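 Flooded paddy soil, 3-leaf rice transplants, sown barnyard grass, spontaneous broadleaf weeds; WP formulation, water-lodged soil application; 0–5 visual rating, day 25.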

[8] = test system: barnyard grass (Echinochloa crus-galli); assay: Water application, herbicidal effect on barnyard grass (Table 2); parameters: key: 0: not damaged; 5: completely killed; settings: 25 days, score 0-5
Method in brief: as §2

[9] = test system: broad-leaved weeds, e.g., monochoria, false pimpernel and toothcup; assay: Water application, herbicidal effect on broad-leaved weeds (Table 2); parameters: key: 0: not damaged; 5: completely killed; settings: 25 days, score 0-5
Method in brief: as §2

SMILES	Herbicidal effect, barnyard grass ([1]; 10 g./a.)	Herbicidal effect, barnyard grass ([1]; 20 g./a.)	Herbicidal effect, barnyard grass ([1]; 40 g./a.)	Herbicidal effect, large crabgrass ([2]; 10 g./a.)	Herbicidal effect, large crabgrass ([2]; 20 g./a.)	Herbicidal effect, large crabgrass ([2]; 40 g./a.)	Herbicidal effect, radish ([3]; 10 g./a.)	Herbicidal effect, radish ([3]; 20 g./a.)	Herbicidal effect, radish ([3]; 40 g./a.)	Herbicidal effect, redroot pigweed ([4]; 10 g./a.)	Herbicidal effect, redroot pigweed ([4]; 20 g./a.)	Herbicidal effect, redroot pigweed ([4]; 40 g./a.)	Herbicidal effect, common purslane ([5]; 10 g./a.)	Herbicidal effect, common purslane ([5]; 20 g./a.)	Herbicidal effect, common purslane ([5]; 40 g./a.)	Herbicidal effect, common lambsquarter ([6]; 10 g./a.)	Herbicidal effect, common lambsquarter ([6]; 20 g./a.)	Herbicidal effect, common lambsquarter ([6]; 40 g./a.)	Phytotoxicity on rice ([7]; 10 g/a)	Phytotoxicity on rice ([7]; 20 g/a)	other results
CCCCOP(=O)(SCCC)SCC(=O)N1CCCCC1CC (stereo not drawn) [Compound 93]	5	5	5	5	5	5	0	0	0	4	5	5	4	4	5	4	5	5	0	0	Phytotoxicity on rice ([7]; 40 g/a): 0; Herbicidal effects, barnyard grass ([8]; 10 g/a): 5; Herbicidal effects, barnyard grass ([8]; 20 g/a): 5; Herbicidal effects, barnyard grass ([8]; 40 g/a): 5; Herbicidal effects, broad-leaved weeds ([9]; 10 g/a): 5; Herbicidal effects, broad-leaved weeds ([9]; 20 g/a): 5; Herbicidal effects, broad-leaved weeds ([9]; 40 g/a): 5
CCCCOP(=O)(SCC(=O)N1CCCCC1CC)SC(C)C (stereo not drawn) [Compound 94]	5	5	5	5	5	5	0	0	0	3	4	5	3	4	5	4	4	5	0	0	Phytotoxicity on rice ([7]; 40 g/a): 0; Herbicidal effects, barnyard grass ([8]; 10 g/a): 5; Herbicidal effects, barnyard grass ([8]; 20 g/a): 5; Herbicidal effects, barnyard grass ([8]; 40 g/a): 5; Herbicidal effects, broad-leaved weeds ([9]; 10 g/a): 5; Herbicidal effects, broad-leaved weeds ([9]; 20 g/a): 5; Herbicidal effects, broad-leaved weeds ([9]; 40 g/a): 5
CCCCOP(=O)(SCCCC)SCC(=O)N1CCCCC1CC (stereo not drawn) [Compound 95]	4	5	5	4	5	5	0	0	0	2	3	3	2	3	3	2	3	4	0	0	Phytotoxicity on rice ([7]; 40 g/a): 0; Herbicidal effects, barnyard grass ([8]; 10 g/a): 5; Herbicidal effects, barnyard grass ([8]; 20 g/a): 5; Herbicidal effects, barnyard grass ([8]; 40 g/a): 5; Herbicidal effects, broad-leaved weeds ([9]; 10 g/a): 5; Herbicidal effects, broad-leaved weeds ([9]; 20 g/a): 5; Herbicidal effects, broad-leaved weeds ([9]; 40 g/a): 5
CCCCOP(=O)(SCC(=O)N1CCCCC1CC)SC(C)CC (stereo not drawn) [Compound 96]	4	5	5	5	5	5	0	0	0	3	4	5	3	4	5	3	4	5	0	0	Phytotoxicity on rice ([7]; 40 g/a): 0; Herbicidal effects, barnyard grass ([8]; 10 g/a): 5; Herbicidal effects, barnyard grass ([8]; 20 g/a): 5; Herbicidal effects, barnyard grass ([8]; 40 g/a): 5; Herbicidal effects, broad-leaved weeds ([9]; 10 g/a): 5; Herbicidal effects, broad-leaved weeds ([9]; 20 g/a): 5; Herbicidal effects, broad-leaved weeds ([9]; 40 g/a): 5
CCCCOP(=O)(SCC(=O)N1CCCCC1CC)SCC(C)C (stereo not drawn) [Compound 97]	4	5	5	4	5	5	0	0	0	3	4	5	4	4	5	3	4	5	0	0	Phytotoxicity on rice ([7]; 40 g/a): 0; Herbicidal effects, barnyard grass ([8]; 10 g/a): 5; Herbicidal effects, barnyard grass ([8]; 20 g/a): 5; Herbicidal effects, barnyard grass ([8]; 40 g/a): 5; Herbicidal effects, broad-leaved weeds ([9]; 10 g/a): 5; Herbicidal effects, broad-leaved weeds ([9]; 20 g/a): 5; Herbicidal effects, broad-leaved weeds ([9]; 40 g/a): 5
CCCCCSP(=O)(OCCCC)SCC(=O)N1CCCCC1CC (stereo not drawn) [Compound 98]	5	5	5	5	5	5	0	0	0	4	5	5	4	5	5	5	5	5	0	0	Phytotoxicity on rice ([7]; 40 g/a): 0; Herbicidal effects, barnyard grass ([8]; 10 g/a): 5; Herbicidal effects, barnyard grass ([8]; 20 g/a): 5; Herbicidal effects, barnyard grass ([8]; 40 g/a): 5; Herbicidal effects, broad-leaved weeds ([9]; 10 g/a): 5; Herbicidal effects, broad-leaved weeds ([9]; 20 g/a): 5; Herbicidal effects, broad-leaved weeds ([9]; 40 g/a): 5
